This note sets out measurements from PMC3527734, “Peripheral injections of melanin-concentrating hormone receptor 1 antagonist S38151 decrease food intake and body weight in rodent obesity models” (Frontiers in Endocrinology, 2012).

Each structure is given as a SMILES string. Read-outs that look alike come from different tables or passages of the source. Where a SMILES comes first, the peptide text is derived from it.

Usually amount remaining stands for what is left of the initial amount, in per cent.

Data set [1] has as its system Zucker fa/fa rats. The following applies: cyclophosphamide 100 mg/kg i.p., S38151 20 nmol/kg (28 μg/kg) i.c.v., n = 8. As to the method:
These experiments were performed with modifications to previously described methods (Madden et al., [1999]). Rats were individually housed in wire-bottomed plastic cages with free access to both food pellets (6 mm diameter A03 UAR) and kaolin powder. The food pellets were presented in a small porcelain bowl on the floor of the cage. The kaolin powder was presented in a metal feeding dish attached to the inside of the cage. After a 2-week habituation period to these conditions, the animals were randomized into five treatment groups based on the quantity of food eaten during the stabilization period. In addition, those rats that consistently spilled the kaolin powder were eliminated from the study. One day after randomization, the animals were injected just before the beginning of the dark phase with either cyclophosphamide (100 mg/kg, i.p.), or S38151 [20 nmol/kg (28 μg/kg) i.c.v.] or vehicle [(artificial CSF) i.c.v.]. After injection, the quantity of kaolin and food ingested during the following 24-h period was determined. Food or kaolin spilled by the animals was collected at the end of the experiment, and total food and kaolin intake measurements were corrected for this loss.
Figure 5 The effects of S38151 on conditioned taste aversion and pica in Zucker fa/fa rats. (A) In the conditioned taste aversion test, after a period of habituation of the animals to the experimental protocol, Zucker fa/fa rats were presented with 0.2% saccharine for 20 min after drinking water was removed from their cages for 18 h (test day 0). Animals were then injected (i.p.) with vehicle or lithium chloride, or with S38151 (20 nmol/kg, i.c.v). On test days 4, 7, 11, and 14, rats were presented with 0.2% saccharine, and the quantity consumed during a 20-min period was determined. Results are expressed as mean ± SEM (n = 10–11 rats per group). […] (B) In the pica test, Zucker fa/fa rats were injected (i.c.v.) with 20 nmol/kg S38151, or an equivalent volume of artificial cerebrospinal fluid vehicle. Food and kaolin intake during the following 24-h period were each measured. Results are expressed as mean ± SEM (n = 8 rats per group).

Data set [2] is described as follows: stability in mouse plasma. In kind it is in vitro ADME. The following applies: LC-MS/MS, representative of three experiments, read-out: % S38151 remaining. As to the method:
First, S38151 was incubated for 16 h at 4°C and 37°C in mouse plasma or in TRIS buffer (pH 7.4). Next, plasma proteins were precipitated with two volumes of acetonitrile. After centrifugation and dilution with a water/acetonitrile mixture (50/50 v/v), the supernatant was injected onto a triple quadripole mass spectrometer (Ultima, Micromass WATERS Corporation, Milford, USA). The liquid chromatographic system consisted of an Agilent 1100 analytic pump (Agilent, Santa Clara, USA) equipped with an Alpha Mos CTC autosampler (Alpha Mos, Toulouse, France). Mass detection was performed using the m/z transition 743.5 > 163, in positive electrospray. A second stability study was performed at a lower concentration (1 μM) and for 4 h, with the following sampling times: 0, 15, 45, 90, and 240 min. At each sampling time, 50 μL of plasma were precipitated with two volumes of acetonitrile, and after centrifugation were directly injected onto the LC-MS/MS system. The same treatment was used for the buffer samples.
Figure 2 Studies regarding the stability of S38151. A solution of S38151 (40 μM) was incubated with either Tris buffer, pH 7.4 (hatched bars), or mouse plasma samples (dark bars) for 16 h at 4°C or 37°C. The samples were analyzed using liquid chromatography coupled to mass spectrometry. Experiments were repeated three times. The chart presented is representative of the experimental results. […]

A further data set concerns DIO mice. The experiment in a line: daily i.p. S38151 in diet-induced obese mice. In kind it is in vivo, mouse. As to the method:
In these studies, 13-week-old female C57BL/6J, ob/ob, and MCH1-KO mice were used. The mice were maintained on a 12-h light/dark cycle (lights on at 07:30 and off at 19:30) at 22 ± 3°C, and supplied with food pellets (6 mm diameter A03, UAR Laboratory chow, Epinay Villemuisson France) and tap water ad libitum. To induce obesity in C57BL/6J (creating diet-induced obese, or DIO, mice), mice were fed a high-fat diet (60 kcal% fat, 20 kcal% protein, 20 kcal% carbohydrate, ref D12492 from Research Diets, New Brunswick, NJ08901, USA) for 8 weeks starting at 4 weeks of age. In these experiments, DIO mice, ob/ob mice, and MCH^−/−1 mice were individually housed in a modular chamber that was placed on an activity platform to concurrently measure the food intake, water intake, and activity of the mice (ADDENFI, Les Cordeliers, Paris, France). For at least 2 weeks before experimentation, mice were habituated to a diet of 6 mm diameter food pellets of the following composition: 67.5% food flour, 26.5% sucrose, 5% gum tragacanth, 1.25% magnesium stearate (A03 UAR, Orge, France), and to i.p. injection. After this habituation period, food intake, drink intake, and body weight were measured for 3 consecutive days. The mice were randomized into three groups based on their food and water intake over the three preceding 24-h periods, and on their body weight. […]
Figure 9 The effects of repeated daily S38151 injection on food and water intake, body weight, and motility in diet-induced obese (DIO) mice. […] Results are expressed as mean ± SEM (n = 8 mice per group).

Data set [3] relates to Zucker fa/fa rats. Kind of data set: conditioned taste aversion. In kind it is in vivo, rat. Particulars: test days 4, 7, 11, 14 versus control; lithium chloride 75 mg/kg i.p.; S38151 20 nmol/kg i.c.v.; n = 10-11.
Setting [4] is: S38151 30 mg/kg i.p. daily for 16 days, data not shown.
Where [5] appears, read: S38151 10 and 30 mg/kg i.p. daily for 5 days, significant from day 2 only at 30 mg/kg, n = 8.

In the case of `CSCC[C@@H]1NC(=O)[C@@H](NC(=O)c2ccc(NC(=N)N)cc2)CSSC[C@@H](C(=O)N[C@@H](Cc2c[nH]c3ccccc23)C(=O)O)NC(=O)[C@@H]2CCCN2C(=O)[C@H](CCCNC(=N)N)NC(=O)[C@H](Cc2ccc(O)cc2)NC(=O)[C@H](C(C)C)NC(=O)[C@H](CCCNC(=N)N)NC(=O)[C@H](CC(C)C)NC1=O` [S38151, p-guanidinobenzoyl-(Des-Gly10)-MCH (7–17)] (HELM PEPTIDE1{[N=C(N)Nc1ccc(C(=O)[*:2])cc1].C.M.L.R.V.Y.R.P.C.W}$PEPTIDE1,PEPTIDE1,2:R3-10:R3$$$V2.0; C-terminus assumed), the “kaolin intake, 24 h, pica test” value with Zucker fa/fa rats [1] (vehicle 0.05 ± 0.01 g) is on record as “did not significantly alter”. In addition, the “food intake, 24 h, pica test” value in the data set with Zucker fa/fa rats [1] (vehicle 27 ± 1 g) is “significantly reduced”. Further, in data set [2] (4°C), the share remaining at 16 h, 40 μM is 59%. In data set [2] (37°C), the share remaining at 16 h, 40 μM worked out at 1.5%. Further, in the data set with DIO mice (setting [4]), the body weight gain entry is “significant reduction”; the glycemia and insulinemia entry is listed as “reduced”; the “triglycerides, free fatty acids, and fat mass” value is given as “significant reduction”. For the same molecule, the glycemia and insulinemia entry with DIO mice (S38151 30 mg/kg i.p., day 6, data not shown) was “significant reductions”. Further, the body weight gain result in the data set on DIO mice (S38151 10 and 30 mg/kg i.p. daily for 5 days, significant at day 3 and day 1, respectively) was “reduction”. In the data set with DIO mice (setting [5]), the drink intake entry was “dose-dependent inhibition” and the food intake entry is “dose-dependent inhibition”. The motility result in the data set on DIO mice (S38151 10 and 30 mg/kg i.p., day 3 to day 5) is reported as “significant reduction”. Further, the 0.2% saccharine consumption result in the data set on Zucker fa/fa rats [3] was “did not affect”.
